# Data as given in PMC9299485, “4‐Iodopyrimidine Labeling Reveals Nuclear Translocation and Nuclease Activity for Both MIF and MIF2” (Chemistry (Weinheim an Der Bergstrasse, Germany), 2021).
# Read-outs that look alike come from different tables or passages of the source.
# Assays:
# Assay type in all cases: biochemical
# MIF2 [1] = target: T1, MIF2 (Homo sapiens, UniProt P30046); assay: Kitz-Wilson inactivation kinetics on MIF2 tautomerase; settings: Kitz-Wilson analysis, ±SD, n=3
# T1 construct: made in house; host or cells: E. coli BL21(DE3), pET20b(+)
# T1 sequence (P30046 2-118 limits assumed): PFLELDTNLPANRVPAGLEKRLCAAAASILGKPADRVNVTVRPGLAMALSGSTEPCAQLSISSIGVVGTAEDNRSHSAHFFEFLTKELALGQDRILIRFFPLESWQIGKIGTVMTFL
# Description: (§1) In order to derive the kinetic parameters for inactivation of MIFand MIF2, we employed the approach described by Kitz and Wilson. Briefly, four different concentrations of the inhibitor with four different pre-incubation times were selected. The assay conditions are described above with the difference in incubation time.
# (§2) For the data analysis, the pre-incubation times for the different concentration of the inhibitor versus the remaining enzyme activity were plotted, so from the linear regression the slope of each concentration of the probe was obtained ( Table S3). Then the 1/slope versus 1/[inhibitor] were plotted (Figure 4) and from the linear regression line ki was derived from the 1/y -intercept and derived from the slope times the ki as described by Kitz and Wilson.
# For example, for the probe 8 the equation is: Y = 7,476*X + 5,069 […]
# (§3) Table S4. Kinetics studies results.
# (§4) Time-dependent inhibition Kitz and Wilson curve […]
# ln (MIF tautomerase activity %) […]
# (§5) Time-dependent inhibition on MIF2 Y = 299,5*X + 11,14 […]
# MIF [2] = target: T2, MIF (Homo sapiens, UniProt P14174); assay: hgDNA cleavage by MIF in presence of tautomerase inhibitors; settings: Figure S3/S7
# T2 construct: His tag (C); made in house; host or cells: Escherichia coli BL21 (DE3), pET-20b(+)
# T2 sequence (P14174 2-115 limits assumed): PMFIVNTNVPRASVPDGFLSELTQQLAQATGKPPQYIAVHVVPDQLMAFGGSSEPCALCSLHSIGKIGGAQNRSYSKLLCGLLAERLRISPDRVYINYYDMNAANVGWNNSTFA
# Description: (§6) 7. Nuclease activity of MIF and MIF2.
# (§7) Human genomic DNA was obtained from RPE-1 cells by DNA extraction following the protocol described in literature.[10] The nuclease assays were conducted by following the procedure described previously.[8] hgDNA (200 ng/reaction) was incubated with MIF or MIF2 in final concentration of 0.62 -20 µM as indicated in 10Mm Tris-HCl buffer (pH 7.0) containing 10mM MgCl2 (B and C) or specific buffer as indicated at 37°C for two hours. The reaction was terminated with loading buffer containing 10mM EDTA and incubation on ice. The human genomic DNA samples were immediately separated on a 1% agarose gel containing SYBR Safe (ThermoFisher) in 0.5 X TBE buffer with initial switch time of 1.5 s and a final switch time of 3.5 s for 12 hours at 6 V/cm. DNA was further detected by chemiluminescence.
# (§8) Figure S7. hgDNA cleavage activity of MIF and MIF2. (A) The MIF2 nuclease activity is Mg 2+- […]
# (§9) BITC is a covalent inhibitor that can form covalent bond with the N-terminal proline.[11] (C) […]
# (§10) (1 picture or pasted object on this page, not shown here)
# MIF2 [3] = target: T1, MIF2; assay: MIF2 tautomerase activity inhibition (PP substrate, UV 300 nm)
# Description: 2. Preparation of recombinant MIF and MIF2. […]
# Purity of obtained protein was tested by SDS-PAGE and Coomassie staining. […]
# (§11) The detailed procedure to produce recombinant human MIF2 was reported in our previous publications.[7] Gene sequences of the human MIF2 gene (Invitrogen) was adapted to bacterial expression. After subcloning into a pET20b(+) expression vector, IPTG-induced expression was performed in E.coli strain BL21(DE3). MIF2 proteins were overproduced overnight and harvested cells were resuspended and sonicated. The soluble fraction was puriﬁed using a Q sepharose column (GE Healthcare) with a gradient of NaCl. The fractions containing MIF2 were brought to 1.7 M ammonium sulfate and loaded on a phenyl sepharose column (GE Healthcare) and eluted with a gradient to 0 M ammonium sulfate in a 20 mM sodium phosphate buffer, pH 8.0. Finally, the proteins were purified by size exclusion chromatography on a Superdex75 column (GE Healthcare) in 20 mM sodium phosphate buffer, pH 8.0, with an elution volume characteristic for trimeric MIF2. The collected protein was concentrated using a VivaSpin centrifugation column with a molecular weight cut off at 5000 D a (Sartorius Stedim Biotech GmbH). Purified proteins were aliquoted, snap frozen in liquid nitrogen, and stored at –80 °C. Purity of obtained protein was tested by SDS-PAGE and coomassie staining. The concentration of protein was determined using the Bradford a ssay.
# (§12) 3.1 MIF and MIF2 Inhibition
# (§13) The protocol for measuring inhibition of MIF or MIF2 tautomerase enzyme activity was described previously.[5] 500 nM MIF solution (180 µL) or 100 nM MIF2 solution (180 µL) in boric acid buffer ([…], pH 6.2) was mixed with 20 mM EDTA solution (10 µL) in demineralized water. A solution of the desired compound dissolved in DMSO (10 µL) or blank DMSO (10 µL) was added. The resulting mixture was preincubated at room temperature for 10 minutes.
# (§14) Subsequently, 50 µL of this mixture was mixed with 50 µL of a 1 mM 4-HPP solution for MIF or 1 mM PP solution for MIF2 in ammonium acetate buffer (50 mM, pH 6.0). Thereafter, MIF or MIF2 tautomerase activity was monitored by measuring the increase of UV absorbance at 306 nm for MIF or 300 nm for MIF2 over time. The MIF or MIF2 tautomerase activity of the mixture with blank DMSO dilution was set to 100% enzyme activity. Noncatalyzed conversion of the substrate in the mixture without MIF or MIF2 was set to 0%. The data acquired from the first 3 minutes of the measurement were used to calculate the initial conversion speed. All experiments were performed in triplicate and data processing was done using the program […]
# (§15) Table S1. IC50 values (10 min) and inactivation parameters of synthesized compounds.
# as §10
# MIF [4] = target: T2, MIF; assay: MIF tautomerase activity inhibition (4-HPP substrate, UV 306 nm)
# Description: 2. Preparation of recombinant MIF and MIF2.
# The detailed procedure to produce C-terminal His-tagged recombinant human MIF was reported in our previous publications.[1,4,5] rhMIF was expressed through transforming a pET-20b(+) plasmid containing the target gene into Escherichia coli BL21 (DE3) according to literature procedures.[6] Overexpression was performed and cells were collected and sonicated.
# The obtained supernatant was applied to a medium pressure chromatography system (Biologic Duoflow) equipped with a His trap HP (5 mL) column with detection at 280 nm for the eluent.
# The column was washed with a binding buffer containing 50 mM Tris and 10% glycerol at pH 7.4 and eluted with elution buffer containing 500 mM imidazole, 50 mM Tris, 10% glycerol at pH 7.4. The pure fractions (as judged by SDS-PAGE) were pooled and subjected to a PD-10 column (GE healthcare) that was equilibrated with PBS buffer at pH 7.4 to remove the high concentration of imidazole. The collected MIF solution was divided into 50 µL aliquots and stored at –80 °C. Purity of obtained protein was tested by SDS-PAGE and Coomassie staining.
# The concentration of protein was determined using the Bradford assay.
# as §11, §12, §13, §14, §15, §10
# MIF [5] = target: T2, MIF; assay: Kitz-Wilson inactivation kinetics on MIF tautomerase
# Description: as §1, §2
# For example, for the probe 8 the equation is: Y = 7,476*X + 5,069
# So, the kinact and the KI values are: kinact =1/5,069 =0.20 min-1
# (also on this page, place not known: -1 0 1 2 3 0 50 100 log [FM011] (µM) DDT (%) -1 0 1 2 3 0 50 100 log [ZP308] (µM) DDT activity (%) 0.0 0.5 1.0 1.5 2.0 0 50 100 log [ZP307] (µM) DDT activity (%) 1.4 1.6 1.8 2.0 2.2 0 50 100 log [FM031] (µM) DDT activity (%) pre -incubation cond itions pre -incubation activity o f (Table 1/y-intercept) […]
# as §3, §4
# ln (MIF tautomerase activity %)
# Time-dependent inhibition on MIF Y = 7,476*X + 5,069
# Time-dependent inhibition on MIF Y = 12,07*X + 4,234 […]
# ln (MIF2 tautomerase activity %)
# as §5
# MIF2 [6] = target: T1, MIF2; assay: hgDNA cleavage by MIF2 in presence of tautomerase inhibitors; settings: Figure S3/S7
# Description: as §6, §7, §8, §9, §10
smiles,measurement,setting,value
O=C(NCCNc1ccc([N+](=O)[O-])c2nonc12)c1ccc(-c2cc(I)ncn2)cc1 [Compound 8],kinact MIF2 (rate of enzyme inactivation),MIF2 [1],0.088 ± 0.012 min⁻¹
same,KI (inactivation),MIF2 [1]; read-out: KI MIF2 (inhibition constant),26000 ± 3200 nM
same,kinact,MIF2 [1]; read-out: kinact MIF2 (rate of enzyme inactivation),0.001 to 0.0015 s⁻¹
same,effect on DNA cleavage by MIF,MIF [2],could not rescue DNA cleavage
same,improvement of potency for MIF2 inhibition compared to parental inhibitor 2,MIF2 [3],2–6 factor
same,IC50,"MIF2 [3]; Table 2, 10 min pre-incubation, ±SD, n=3, read-out: IC50 MIF2",20000 ± 2200 nM
same,IC50,"MIF [4]; Table 2, 10 min pre-incubation, ±SD, n=3, read-out: IC50 MIF",270 ± 85 nM
same,IC50,"MIF [4]; approximate, read-out: IC50 on MIF",~200 nM
same,KI on MIF relative to IC50,MIF [5]; KI higher than IC50,about 10 times
same,KI (inactivation),"MIF [5]; Kitz-Wilson analysis, ±SD, n=3, read-out: KI MIF (inhibition constant)",1500 ± 200 nM
same,kinact,"MIF [5]; Kitz-Wilson analysis, ±SD, n=3, read-out: kinact MIF (rate of enzyme inactivation) (converted)",0.00333 s⁻¹
same,effect on DNA cleavage by MIF2,MIF2 [6],could not rescue DNA cleavage
